Test results reported in patent US6652861B1, “Anti-HIV and anti-tumor peptides and truncated polypeptides of MAP30” (priority 1999, dated 2003).
“And” between values parts separate entries of the source, which are not always exact repeats. Equal values may be shown once. “Also recorded” adds a separate entry of the source.

B1: MAP30: Momordica Anti-HIV Protein 30 kDa, native full-length, SEQ ID NO:1, from bitter melon (protein, listed as Momordica charantia)
chain: DVNFDLSTATAKTYTKFIEDFRATLPFSHKVYDIPLLYSTISDSRRFILLDLTSYAYETISVAIDVTNVYVVAYRTRDVSYFFKESPPEAYNILFKGTRKITLPYTGNYENLQTAAHKIRENIDLGLPALSSAITTLFYYNAQSAPSALLVLIQTTAEAARFKYIERHVAKYVATNFKPNLAIISLENQWSALSKQIFLAQNQGGKFRNPVDLIKPTGERFQVTNVDSDVVKGNIKLLLNSRASTADENFITTMTLLGESVVN

Experiments:
human spermatozoa [1] = assay: Sperm motility by counting; format: cell-based; conditions: for effect on sperm motility at the antiviral EC100 concentrations: 0.01 to 0.1 μg/ml; for spermicidal activity / motility inhibition over the entire concentration ranges tested: 0.1 to 100 μg/ml
Experimental: Ten semen samples were randomly obtained form ten donors at the Andrology laboratory of the Department of Obstetrics and Gynecology at NYU Medical Center. All specimens were normal semen samples according to WHO guidelines. Each sample consisted of greater than or equal to 20 million motile sperm per milliliter. Sperm count and motility were determined by placing the sperm on a hackler chamber and assessing the samples under a 40× power microscopic field.
Each semen sample was washed two consecutive times in Ham's F-10 media. The washed sperm was spun to a pellet and then re-suspended in media to a concentration of 40 million spermatocytes per milliliter with at least 50% motility. Five microliters of sperm were then suspended in 100 microliters each of PBS, serial 10-fold dilutions of MAP30, or GAP31 or N-9 from 100 to 0.1 microg/ml. N-9 was used as a positive control. Motility and forward progression were assessed at each log concentration of the three compounds. The exposure time ranged form five minute to two hours.

human spermatozoa [2] = assay: Sperm vitality by eosin Y/nigrosine staining; format: cell-based; conditions: vital stain
Experimental: The vitality staining was carried out by adding two drops of eosin Y to one drop of sperm sample and mixing for ten seconds. Two drops of nigrosine were then added to this mixture, and the solutions as mixed for 30 seconds. Slides were made from one drop of each solution mixed with MAP30, or GAP31, or N-9.

HIV-1(IIIB) = assay: Anti-HIV assay: p24 expression in HIV-infected MT-4 T lymphocytes; format: cell-based; conditions: for EC50 / EC50 anti-HIV, p24 / EC100 anti-HIV, p24 (complete inhibition of HIV-1) / EC100 anti-HIV, p24 (molar): HIV-1 infected MT4 lymphocytes; for fold more potent than N-9 in terms of molar concentration at EC50 / fold more potent than N-9 in terms of weight per volume: anti-HIV p24, MT4; for concentration of complete inhibition of p24 expression (FIG. 9): p24 ELISA of HIV-infected MT4 culture supernatant
Experimental: Anti-HIV activity was assayed by inhibition on viral core protein, p24 expression in HIV-infected MT-4 T lymphocytes by RIA as described previously (World Health Organization (1992); Bourinbaiar et al (1995)). Briefly, the cells were plated in duplicated in 96-well microtiter plates at 1×10^5 cells/ml in the presence of serial 10-fold dilution of MAP30, or GAP31 or NP-9 at concentrations from […]. The cells were then infected with HIV-1(IIIB) at 100 infectious units per cell. The culture supernatants were collected on day 3 and were used for p24 assay using ELISA kit from Coulter (Hialeah, Fla.). Duplicates of original viral inoculum in the same volume of the medium without the target cells and incubated for 3 days were used as blanks. The blank values were subtracted from wells in which virus was propagated in host MT4 cells with or without drugs.

HSV-2 = assay: Anti-HSV assay by ELISA in WI-38 cells; format: cell-based
Experimental: Anti-HSV activity was assayed with HSV-2 by ELISA (Meridian Diagnostics, Inc., Cincinnati, Ohio) as reported previously (Bourinbaiar et al (1996)). Human embryonic lung fibroblast cell line WI-38, (CCL-75, from ATCC, Rockville, Md.) was used as target cells. HSV-2 (VR-734, strain G) derived from a human with the genital infection was obtained from ATCC, Rockville, Md.

[3] = tested on: endoproteinase Lys-C and Glu-C (V8); assay: Resistance to limited proteolysis with Lys-C and V8 (SDS-PAGE); conditions: Lys-C or V8, up to 24 hr
Experimental: MAP30 and GAP31 were subjected to proteolysis with sequencing grade endoproteinase Lys-C and Glu-C (Promega, Madison, Wis.). Lys-C cleaves at the carboxylic side of lysine (Elliott et al., 1986). Glu-C, also known as V8 protease, cleaves specifically at the carboxylic side of glutamic acid in the presence of ammonium ion (Drapeau et al., 1972). In the absence of ammonium ion, Glu-C acts at both aspartic and glutamic acids. The reaction buffers for Lys-C and V8 were 25 mM Tris-HCl, pH 7.8, 1 mM EDTA and 50 mM ammonium bicarbonate, pH 7.8 respectively.
FIGS. 1A-1D show time course SDS-PAGE patterns of Lys-C and V8 digestions of MAP30 and GAP31. Three major fragments were produced in each case. These fragments are designated MLF25, MLF21, MLF0.8 (MAP30 Lys-C Fragments of 25, 21, and 0.8 kDa, FIG. 1A), MVF25, MVF21, MVF0.8 (MAP30 V8 Fragments of 25, 21, and 0.8 kDa, FIG. 1B), GLF26, GLF22, GLF0.6 (GAP31 Lys-C Fragments of 26, 22 and 0.6 kDa, FIG. 1C), and GVF26, GVF22, GVF0.6 (GAP31 V8 Fragments of 26, 22 and 0.6 kDa, FIG. 1D). The smaller peptides are C-terminal fragments produced during proteolysis and they are sensitive to further digestion to short peptides.

Molecule	inhibition of sperm motility at 100 μg/ml (human spermatozoa [1])	effect on sperm motility at the antiviral EC100 concentrations (human spermatozoa [1])	spermicidal activity / motility inhibition over the entire concentration ranges tested (human spermatozoa [1])	sperm vitality after treatment (human spermatozoa [2])	EC50 (HIV-1(IIIB))	EC50 anti-HIV, p24 (HIV-1(IIIB))	EC100 anti-HIV, p24 (complete inhibition of HIV-1) (HIV-1(IIIB))	EC100 anti-HIV, p24 (molar) (HIV-1(IIIB))	fold more potent than N-9 in terms of molar concentration at EC50 (HIV-1(IIIB))	fold more potent than N-9 in terms of weight per volume (HIV-1(IIIB))	concentration of complete inhibition of p24 expression (FIG. 9) (HIV-1(IIIB))	EC100 for HSV-2 (complete inhibition) (HSV-2)	resistance to proteolysis [3]	concentration of complete inhibition of sperm motility (FIG. 7) (human spermatozoa [1])	inhibition in motility at 10 μg/ml (human spermatozoa [1]; 10 μg/ml, relative to PBS as 100% motility, mean ± SEM)	EC50 spermicidal activity (human spermatozoa [1]; 50% inhibition of sperm motility)	EC100 spermicidal activity (human spermatozoa [1]; 100% inhibition of sperm motility)	inhibition on sperm motility at the antiviral EC100 concentrations (human spermatozoa [1]; N-9 at 10 μg/ml and 50 μg/ml)
GAP31: Gelonium Anti-HIV Protein 31 kDa, native full-length, SEQ ID NO:2, from Gelonium multiflorum	only marginal effect	no significant effect on sperm motility	little spermicidal activity; also recorded: little inhibition	remained vital and impermeable to the pink dye; also recorded: not toxic to the spermatozoa	0.3 nM	0.001 µg/mL	0.1 µg/mL	3.3 nM	about 540 fold	about 100 fold	0.1 microgram/ml	0.1 µg/mL	no proteolysis was detected up to 24 hr of treatment even at as much as 5% (W/W) of enzyme					
Nonoxynol-9 [Fragment N-9, reference compound]	totally inhibited			potent spermicidal effect; also recorded: all sperm wimples were dead	162 nM	0.1 µg/mL	10 µg/mL	16200 nM			10 microgram/ml	50 µg/mL		100 micrograms/ml	43±5%	20 µg/mL	100 µg/mL	50 to 80%
B1	only marginal effect	no significant effect on sperm motility	little spermicidal activity; also recorded: little inhibition	remained vital and impermeable to the pink dye; also recorded: Identical results	0.3 nM	0.001 µg/mL	0.1 µg/mL and 0.08 µg/mL	3.3 nM	about 540 fold	about 100 fold	0.1 microgram/ml	0.01 µg/mL	no proteolysis was detected up to 24 hr of treatment even at as much as 5% (W/W) of enzyme					
